Measured values: patent US4812443A, “Methods for enhancing differentiation and proliferation of hematopoietic progenitor cells” (Kuraray Co., Ltd., priority 1984, dated 1989)
“Also recorded” adds a separate entry of the source.

Tests used:
erythropoiesis = assay: Erythropoiesis in vivo, 59Fe incorporation in phenylhydrazine-induced anemic mice (Run 6); design: species or system mouse (BDF1-strain); details: 250 mg/kg twice i.p.
Method: Phenylhydrazine was administered to normal mice and hereditarily anemic mice to induce severe hemolytic anemia. Then, the rate of erythropoiesis during recovering of anemia was determined by measuring the rate of radioactive iron (^59 Fe) incorporation into newly formed red blood cells [P. M. Cotes, D. R. Bangham, Nature (London), 191, 1067 (1961)]. The testing method and results are described below.
Phenylhydrazine hydrochloride (60 mg/kg) dissolved in normal saline solution was subcutaneously injected into BDF1 -strain mice (6 weeks old, female) three times, namely on the 1st, 2nd and 4th day of the experiment to produce phenylhydrazine-induced anemic mice. Dolichol in a dose of 250 mg/kg (25 mg of dolichol was emulsified in 1 ml of a 1% aqueous solution of sodium carboxymethyl cellulose; 0.2 ml/20 g of the body weight) was intraperitoneally administered to the mice twice, namely on the 1st and 2nd day. […] On the 6th day, 0.5 ml of the whole blood was taken from each mouse, and the radioactivity of ^59 Fe incorporated into the whole blood during the period of 48 hours was measured by an auto-gamma-counter. […] By assuming that the amount of the whole blood of each mouse was 7% of the body weight, the ^59 Fe incorporation rates were calculated in accordance with the following equation and averaged. […]

extracted atrium = assay: Peripheral action, extracted atrium of guinea pigs; design: species or system guinea pig (Hartley-strain); details: 10^-6, 10^-5 and 10^-4 g/ml; 30° C.
Description: (§1) Since the dolichol is a water-insoluble oily liquid, it was used as a solution in sesame oil in the case of oral administration, and as a suspension in a nonionic surfactant (HCO-60, a trade name for a product of Nikko Chemical Co., Ltd.) in the case of intraperitoneal administration and in an in vitro test in the following experiment.
(§2) In the following experiment, ddY-strain male mice, Wistar-strain male rats (Shizuoka Laboratory Animal Center), Japanese white male rabbits (Carely) and Hartley-strain male guinea pigs (Clea Japan Inc.) were used. The animals were kept under conditions including a temperature of 23±1° C., a humidity of 55±10%, an illuminating time (7:00 am to 9.00 pm) and 15 ventilations per hour. The mice and rats were fed with solid feeds MF (a product of Oriental Yeast Co., Ltd.) and the guinea pigs and rabbits were fed with solid feeds GM-3 and RM-1 (Funabashi Farm Co.). They were allowed to take tap water freely. The animals were preliminarily kept for more than one week, and those which were healthy in general conditions were used in the experiments.
Hartley-strain male guinea pigs (350-400 g), 3 per group, were used. […] The contraction of the atria was recorded on an ink-writing oscillograph (EMP-3004, Nippon Photoelectric Co.) through an FD pick-up (TB-611T, Nippon Photoelectric Co.). […]

extracted trachea = assay: Peripheral action, extracted trachea of guinea pigs; design: species or system guinea pig (Hartley-strain); details: up to 10^-4 g/ml, 37° C.
Description: as §1, §2
Hartley-strain male guinea pigs (350-400 g), 3 per group, were used. The extracted trachea was suspended in Locke-Ringer solution at 37° C. through which air was introduced. The contraction of the trachea was recorded in the same way as in the case of the extracted ileum. […]

blood coagulation system = assay: Effect on the blood coagulation system in rats (Quick's one-step method); type: in vivo, rat (Wistar-strain); details: 150, 300 and 600 mg/kg; two hours after administration; vs control
Description: as §1, §2
Wistar-strain male rats (180-210 g), 6 per group, were used. Two hours after administration of dolichol to rats, the blood was taken from the abdominal main vein of the rats, and the prothrombin time was measured by the Quick's one-step method.

blood sugar = assay: Blood sugar lowering action in rats (glucose-oxidase method); type: in vivo, rat (Wistar-strain); details: 150, 300 and 600 mg/kg; two hours after administration; vs control
Description: as §1, §2
Wistar-strain male rats (180-210 g), 6 per group, were used. Two hours after administration of dolichol to the rats, the blood was taken from the abdominal main vein of the rats, and the blood sugar level was measured by the glucose-oxidase method.

Diuretic action in rats = type: in vivo, rat (Wistar-strain); details: 150, 300 and 600 mg/kg; 6 hours after administration; vs control
Description: as §1, §2
Wistar-strain male rats (80-90 g), 6 per group, were used. Immediately after administration of dolichol to the rats, normal saline solution was orally administered to the rats in a dose of 2.5 ml/100 g. […] Urine was taken 6 hours after administration of dolichol, and its amount was measured.

acetic acid writhing = assay: Analgesic action in mice (acetic acid writhing method); type: in vivo, mouse (ddY-strain); details: 150, 300 and 600 mg/kg; one hour before acetic acid; vs control
Description: as §1, §2
ddY-strain male mice (27-30 g), 6 per group, were used. One hour after administration of dolichol to the mice, 0.6% acetic acid was intraperitoneally administered to the mice in a dose of 0.1 ml/10 g. […] The inhibitory action on acetic acid writhing was thus examined.

[1] = system: reserpine-induced blepharoptosis; assay: Reserpine antagonistic action in mice; type: in vivo, mouse (ddY-strain); details: 150, 300 and 600 mg/kg; reserpine 4 mg/kg i.p.; one hour after administration; vs control
Description: as §1
as §2, with “The animals were preliminarily kept for more than one week, and those which were healthy in general conditions were used in the experiments.” left out
ddY-strain male mice (27-30 g), 6 per group, were used. […] One hour after the administration of dolichol, the degree of blepharoptosis in the mice was observed and recorded in accordance with the Rubin's standards of evaluation (0: normal opening of the eyes, 1: 1/4 blepharoptosis, 2: 1/2 blepharoptosis, 3: 3/4 blepharoptosis, 4: complete blepharoptosis).

Water solubility = type: physicochemical

In the case of dolichol, the “59Fe incorporation rate (%), dolichol administered group” value (erythropoiesis; 48 hours, control group 48.2) is reported as 50.2%, the “Erythropoiesis enhancing ratio (%)” value (erythropoiesis; percent increase of 59Fe incorporation rate vs control) is reported as “+4.2%” and the Chronotropic action (extracted atrium) is reported as “nor chronotropic action”. The Inotropic action (extracted atrium) was “no inotropic”, the “Antagonistic action against isoproterenol” value (extracted trachea; extracted trachea) was “nor antagonistic action” and the “Direct action on extracted trachea” value (extracted trachea) was “no direct action”. For the same substance, the Prothrombin time (blood coagulation system) was “tended to become longer; also recorded: no significant difference was noted”, the Blood sugar level (blood sugar) was “no significant difference was noted” and the “Diuretic action (amount of urine)” value (Diuretic action in rats) was “no significant difference was noted”. The “Inhibitory action on acetic acid writhing” value (acetic acid writhing) was “no significant difference was noted”, the “Antagonistic action against reserpine-induced blepharoptosis” value [1] was “no antagonistic action” and the Water solubility (Water solubility) was “water-insoluble”.
